Assay results as given in US5037830A, “Novel thiouracyl derivatives, pharmaceutical compositions containing them and process for preparing same” (Richter Gedeon Vegyeszeti Gyar RT, priority 1989, dated 1991).
Like-named read-outs stand apart in the source and are kept apart here.

Experiments:
[1] = tested on: gastric ulcer after pylorus ligature; assay: Gastric ulcer-inhibiting effect in rats operated according to Shay's method; assay type: in vivo, female OFA rats; conditions: Rattus norvegicus, po, 18 h, p.o.
Procedure: Female OFA rats starved for 24 hours weighing 150 to 160 g were used. (The animals were allowed to drink water ad libitum). The animals were orally treated with the substance to be tested and after 1 hour laparotomy and pylorus ligature according to Shay [Gastroenterology 5, 43 (1945)] were performed under ether anaesthesia. After 18 hours the number and size of ulcers formed on the membranaceous part of the stomach were examined under microscope. The evaluation was made in relation to the control group and the ED50 values were determined. The sizes of the ulcers were expressed as score values from 0.5 to 32.

[2] = tested on: gastric ulcer induced by Aspirin plus stress; assay: Inhibition of the gastric ulcer induced by Aspirin plus stress; assay type: in vivo, female RG-Wistar rats; conditions: Rattus norvegicus, po; Aspirin plus stress
Procedure: After being starved for 24 hours, female RG-Wistar rats weighing 120 to 150 g were orally treated with the compound to be tested and then orally with Aspirin. The animals were sensitized by the aspirin pretreatment and a strong ulceration was induced in the glandular part of stomach of the animals by a subsequent stress (fastening, ducking in water of 22° C. temperature). The ulceration was evaluated as score values from 0 to 2.

[3] = tested on: acetic acid-induced chronic ulcer; assay: Recovery-influencing effect on the acetic acid-induced chronic ulcer; assay type: in vivo, female RG-Wistar rats; conditions: 15 mg/kg oral dose, daily twice for 15 days
Procedure: After anaesthesia by ether and laparotomy, 50 μl of 20% acetic acid were injected into the stomach wall of female RG-Wistar rats. After 5 days the animals were orally treated with the compounds to be tested daily twice for 15 days. On the 16th day the animals were killed by ether and the size of the ulcers appearing on the stomach was measured. The grade of recovery was defined in relation to the control group.

[4] = tested on: spontaneous gastric acid secretion; assay: Gastric acid secretion-inhibiting effect according to Shay's method; assay type: in vivo, female OFA rats; conditions: for Gastric acid, change / Gastric juice, change: vs control; for Gastric acid, treated: titration with 0.1N NaOH
Procedure: After being starved for 24 hours, female OFA rats weighing 130 to 160 g were orally treated with the compounds to be tested. (15 animals were used for each dose.) One hour later laparotomy and pylorus ligature were carried out under ether anaesthesia according to Shay [Gastroenterology 5, 43 (1945)]. After 5 hours the animals were killed by an overdose of ether, their stomaches were excised and the volume and acid content of the gastric juice were determined. The acid was measured by titration with 0.1N NaOH, by using Topfer's indicator.

[5] = tested on: necrosis induced by ethanol containing hydrochloric acid; assay: Cytoprotective effect (modified Robert's test); assay type: in vivo; conditions: for Bleedings, change: vs control
Procedure: The modified Robert's test [Gastroenterology 17, 761 (1979)] was used. The necrotizing agent (100 ml of abs. ethanol containing 2 ml of concentrated hydrochloric acid) was orally administered in a volume of 0.5 ml/100 g by 30 minutes after giving the compound to be tested. (12 animals were used for each dose.) After 1 hour the animals were killed by ether and the bleedings on the glandular part of their stomach were evaluated.

[6] = tested on: histamine-induced gastric acid secretion; assay: Inhibition of the histamine-induced gastric acid secretion in rats; assay type: in vivo, male OFA rats; conditions: for Gastric acid, change / Gastric juice, change: vs control; for Gastric juice, treated: histamine 5 mg/kg/hour;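 for Gastric acid, treated: dosed 30 min before a 5 hour experiment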
Procedure: (§1) After being starved for 24 hours, male OFA rats weighing 250 to 320 g were anaestethized by 40% urethane (0.5 ml/100 g), then the trachea and jugular vein were cannulated (10 animals were used for each dose). A glass cannula was inserted to the stomach from the direction of the pylorus. The stomach was washed with lukewarm water and then purified by air blown through. The gastric acid secretion was induced by an infusion of histamine (5 mg/kg/hour), or pentagastrin (0.05 mg/kg/hour) or carbachol (0.01 mg/kg/hour), respectively. […]

[7] = tested on: reserpine-induced gastric ulcer; assay: Inhibition of the reserpine-induced gastric ulcer; assay type: in vivo, female OFA rats; conditions: Rattus norvegicus, po, 18 h, p.o., reserpine 5 mg/kg s.c.
Procedure: After being starved for 24 hours, female OFA rats were orally treated with the compounds to be tested and then subcutaneously (s.c.) with 5 mg/kg of reserpine after 1 hour. After 18 hours the animals were killed and their stomach were examined under microscope. The evaluation was performed as described under the preceding paragraph 1.

[8] = tested on: indomethacin-induced gastric ulcer; assay: Inhibition of the indomethacin-induced gastric ulcer; assay type: in vivo, female RG-Wistar rats; conditions: Rattus norvegicus, po; indomethacin 20 mg/kg orally
Procedure: After being starved for 24 hours, female RG-Wistar rats were orally treated with the compounds to be tested and then orally with 20 mg/kg of indomethacin after 30 minutes. The evaluation was carried out in relation to the control group and the ED50 values were determined.

[9] = Acute toxicity, mouse; conditions: in vivo
Procedure: These investigations were carried out in OFI mice and OFA rats after starving for 24 hours. Ten animals were used for each dose. The number of doses was 3 or 4.

[10] = tested on: carbachol-induced gastric acid secretion; assay: Inhibition of the carbachol-induced gastric acid secretion in rats; assay type: in vivo, male OFA rats; conditions: for Gastric acid, change / Gastric juice, change: vs control; for Gastric juice, treated: carbachol 0.01 mg/kg/hour;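 for Gastric acid, treated: dosed 30 min before a 5 hour experiment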
Procedure: as §1

[11] = read-out: ED50 related to the number of ulcers
[12] = read-out: ED50 related to the occurrance of ulcers
[13] = read-out: ED50 related to the severity of ulcers

With `CN(C)c1ccccc1C[S+]([O-])c1nc2ccccc2[nH]1` (centres unmarked) [NC-1300, 2-[(2-dimethylaminobenzyl)sulfinyl]-1H-benzimidazole, reference compound] the ED50 [1, 11] was 7.4 mg/kg, the ED50 [1, 12] was 14.5 mg/kg and the ED50 [1, 13] was 5.7 mg/kg. The ED50 [2] was 11.9 mg/kg, the “increase in the recovery” value [3] was 37% and the “Gastric juice, treated” value ([4]; 10 mg/kg p.o.) was 6.11 mL. The “Gastric acid, change” value ([4]; 10 mg/kg p.o.) was -34.0%, the “Gastric juice, change” value ([4]; 10 mg/kg p.o.) was -16.3% and the “Gastric acid, treated” value ([4]; 10 mg/kg p.o.) was 2.74 mL. The “Gastric juice, treated” value ([4]; 20 mg/kg p.o.) was 4.63 mL, the “Gastric acid, change” value ([4]; 20 mg/kg p.o.) was -58.2% and the “Gastric juice, change” value ([4]; 20 mg/kg p.o.) was -17.5%. The “Gastric acid, treated” value ([4]; 20 mg/kg p.o.) was 1.36 mL, the “Gastric juice, treated” value ([4]; 50 mg/kg p.o.) was 4.50 mL and the “Gastric acid, change” value ([4]; 50 mg/kg p.o.) was -88.1%. The “Gastric juice, change” value ([4]; 50 mg/kg p.o.) was -23.7%, the “Gastric acid, treated” value ([4]; 50 mg/kg p.o.) was 0.41 mL and the ED50 ([4]; po, gastric acid, Shay rat) was 16 mg/kg. The “Bleedings, treated” value ([5]; 5 mg/kg p.o.) was 84.4 mm, the “Bleedings, change” value ([5]; 5 mg/kg p.o.) was -21.7% and the “Bleedings, treated” value ([5]; 10 mg/kg p.o.) was 42.25 mm. For the same compound, the “Bleedings, change” value ([5]; 10 mg/kg p.o.) was -60.8%, the “Bleedings, treated” value ([5]; 20 mg/kg p.o.) was 11.65 mm and the “Bleedings, change” value ([5]; 20 mg/kg p.o.) was -86.0%. The ED50 ([5]; po, cytoprotection) was 8.6 mg/kg, the “Gastric acid, treated” value ([6]; 5 mg/kg i.p.) was 1.97 mL and the “Gastric acid, change” value ([6]; 5 mg/kg i.p.) was -43%. For the same compound, the “Gastric juice, change” value ([6]; 5 mg/kg i.p.) was -45%, the “Gastric juice, treated” value ([6]; 5 mg/kg i.p.) was 1.27 mL and the “Gastric acid, treated” value ([6]; 10 mg/kg i.p.) was 0.78 mL. The “Gastric acid, change” value ([6]; 10 mg/kg i.p.) was -77%, the “Gastric juice, change” value ([6]; 10 mg/kg i.p.) was -79% and the “Gastric juice, treated” value ([6]; 10 mg/kg i.p.) was 0.49 mL. The “Gastric acid, treated” value ([6]; 20 mg/kg i.p.) was 0.61 mL, the “Gastric acid, change” value ([6]; 20 mg/kg i.p.) was -82% and the “Gastric juice, change” value ([6]; 20 mg/kg i.p.) was -78%. The “Gastric juice, treated” value ([6]; 20 mg/kg i.p.) was 0.50 mL, the ED50 ([6]; Rattus norvegicus, ip, histamine-induced, dose column i.p.) was 6 mg/kg and the ED50 [7, 11] was 8 mg/kg. The ED50 [7, 12] was 18 mg/kg, the ED50 [7, 13] was 6 mg/kg and the ED50 [8] was 8.4 mg/kg. It also gave an LD50 ([9]; ip, female mouse) of 415 mg/kg, an LD50 ([9]; ip, male mouse) of 410 mg/kg and an LD50 ([9]; po, female mouse, precision restricted by solubility) of over 1000 mg/kg. The LD50 ([9]; po, male mouse, precision restricted by solubility) was over 1000 mg/kg, the “Gastric acid, treated” value ([10]; 6.25 mg/kg i.p.) was 1.89 mL and the “Gastric acid, change” value ([10]; 6.25 mg/kg i.p.) was -31%. The “Gastric juice, change” value ([10]; 6.25 mg/kg i.p.) was -25%, the “Gastric juice, treated” value ([10]; 6.25 mg/kg i.p.) was 1.55 mL and the “Gastric acid, treated” value ([10]; 9 mg/kg i.p.) was 1.86 mL. For the same compound, the “Gastric acid, change” value ([10]; 9 mg/kg i.p.) was -32%, the “Gastric juice, change” value ([10]; 9 mg/kg i.p.) was -24% and the “Gastric juice, treated” value ([10]; 9 mg/kg i.p.) was 1.57 mL. The “Gastric acid, treated” value ([10]; 12.5 mg/kg i.p.) was 0.72 mL, the “Gastric acid, change” value ([10]; 12.5 mg/kg i.p.) was -74% and the “Gastric juice, change” value ([10]; 12.5 mg/kg i.p.) was -58%. The “Gastric juice, treated” value ([10]; 12.5 mg/kg i.p.) was 0.87 mL and the ED50 ([10]; Rattus norvegicus, ip, carbachol-induced, dose column i.p.) was 9.6 mg/kg.
